According to US9464064B2, “HCV helicase inhibitors and methods of use thereof” (University of Kansas, priority 2011, dated 2016):
Residues, ends and D or L forms follow the SMILES beside them. *: point of attachment. CH2Cl = ClC*

Target: T1, HCV NS3 helicase NS3h_1b(con1) (Hepatitis C virus genotype 1b, UniProt Q9WMX2)
T1 construct: truncated C-terminally His-tagged NS3 proteins lacking the N-terminal protease, called NS3h; His-tag (C); made in house
Test: MBHA screen of NCI mechanistic set library at 20 μM (percent inhibition, compound interference)
Format: biochemical
Details: compounds at 20 μM; for Inh. (%) (Inhibition): calculated from Equation 1
Protocol: All molecular beacon-based helicase assays (MBHAs) were performed according to known methods (Belon & Frick (2008) supra; Belon & Frick (2009) supra). […] In each flat, black 384-well plate, 56 compounds were tested, in triplicate, along with three negative controls (DMSO only), three positive controls (500 nM dT20), and two wells with no enzyme. Fluorescence was read before ATP (F0) addition and 30 minutes after ATP was added to 1 mM (F30) using a Tecan Infinite M200 fluorescence microplate reader with excitation and emission wavelengths set to 643 and 670 nm, respectively. Percent inhibition was calculated with equation 1, and compound interference in the MBHA was calculated with equation 2.
In Equations 1 and 2, Fc0 is the fluorescence of the reactions containing the test compound before adding ATP, Fc30 is the fluorescence of the test compound reaction 30 minutes after adding ATP. F(−)0 is the average of three DMSO-only negative control reactions before adding ATP and F(−)30 is the average of three DMSO-only reactions 30 minutes after adding ATP.
To identify HCV helicase inhibitors, the MBHA was first used to screen the National Cancer Institute Developmental Therapeutics Program's mechanistic set library. In total, 827 compounds (at 20 μM) were screened using a MBHA with a DNA substrate (Table 1). Compounds were ranked by their ability to inhibit HCV helicase-catalyzed DNA unwinding as calculated from Equation 1.
Compound interference in the MBHA was evaluated by comparing the fluorescence of reactions containing each compound to the fluorescence of DMSO-only negative controls before ATP was added.

[1] = assay interference calculated with Equation 2 (fluorescence vs DMSO-only controls before ATP)
[2] = MBHA with DNA substrate, assay interference calculated with Equation 2

T1 sequence (Q9WMX2 1192-1657): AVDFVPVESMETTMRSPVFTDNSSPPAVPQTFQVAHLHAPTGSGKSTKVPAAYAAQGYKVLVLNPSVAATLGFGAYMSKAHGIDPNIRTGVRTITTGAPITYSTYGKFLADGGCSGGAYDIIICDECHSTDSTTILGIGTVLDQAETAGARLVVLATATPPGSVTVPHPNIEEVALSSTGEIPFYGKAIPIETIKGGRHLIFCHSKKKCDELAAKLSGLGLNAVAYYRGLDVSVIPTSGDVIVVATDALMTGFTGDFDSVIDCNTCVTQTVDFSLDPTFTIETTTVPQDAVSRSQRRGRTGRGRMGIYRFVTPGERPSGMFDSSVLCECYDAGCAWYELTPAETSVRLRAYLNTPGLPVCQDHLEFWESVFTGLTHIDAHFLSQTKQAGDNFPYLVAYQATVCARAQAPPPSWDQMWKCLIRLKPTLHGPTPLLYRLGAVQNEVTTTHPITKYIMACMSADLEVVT

| SMILES | Inh. (%) (Inhibition) (MBHA with a DNA substrate) | Int.* (Ratio) (Interference) [1] | Int.* (Ratio) (Interference) [2] | Inh. (%) (Inhibition) (MBHA with DNA substrate) |
| --- | --- | --- | --- | --- |
| CN(C)CCCN1c2ccc3ccccc3c2Sc2cccc(Cl)c21 [Compound 24113] | 11.0 | 0.81 |  |  |
| CC(=O)O[C@H]1C(=O)[C@@]2(C)[C@H]([C@H](OC(=O)c3ccccc3)[C@]3(O)C[C@H](O)C(C)=C1C3(C)C)[C@]1(OC(C)=O)CO[C@@H]1C[C@@H]2O [Compound 330753] | −24.1 | 0.88 |  |  |
| COC1(O)C(=O)c2ccccc2OC1(OC)c1ccccc1 (stereo not shown) [Compound 95848] | 7.7 | 0.90 |  |  |
| C[C@@H]1C[C@H]2OC(=O)[C@@]3(C)CCC[C@@](C)([C@@H]23)[C@@]1(O)CCc1ccoc1 [Compound 36693] |  |  | 0.76 | −8.8 |
| CO[C@@H]1[C@@H](OC(=O)c2ccc(C)[nH]2)[C@@H](O)[C@H](Oc2ccc3c(O)c(NC(=O)c4c[nH]c(C(=O)Nc5c(O)c6ccc(O[C@@H]7OC(C)(C)[C@H](OC)[C@@H](OC(=O)c8ccc(C)[nH]8)[C@H]7O)c(C)c6oc5=O)c4C)c(=O)oc3c2C)OC1(C)C [Compound 107412] |  |  | 0.83 | 0.0 |
| CC(/C=N/N=C(N)N)=N\N=C(N)N [Compound 32946] |  |  | 1.07 | −13.6 |
| Nc1ncnc2c(C3OC(CO)C(O)C3O)[nH]nc12 (stereo not shown) [Compound 102811] |  |  | 1.08 | 1.0 |
| COc1cccc2c1C(=O)c1c(O)c3c(c(O)c1C2=O)C[C@@](O)(C(C)=O)C[C@@H]3O[C@H]1C[C@H](N(Cc2ccccc2)Cc2ccccc2)[C@H](O)[C@H](C)O1.Cl [Compound 268242] |  |  | 0.88 | 30.6 |
| COc1nc(N)nc2nc[nH]c12 [Compound 37364] |  |  | 1.01 | 16.5 |
| CC(=O)O[C@H]1C[C@H](O[C@H]2[C@@H](O)C[C@H](O[C@H]3[C@@H](O)C[C@H](O[C@H]4CC[C@@]5(C)[C@H](CC[C@@H]6[C@@H]5CC[C@]5(C)[C@@H](C7=CC(=O)OC7)CC[C@]65O)C4)O[C@@H]3C)O[C@@H]2C)OC(C)[C@H]1O[C@@H]1O[C@H](CO)[C@@H](O)[C@H](O)[C@H]1O (stereo partly shown) [Compound 7532] | −3.4 | 0.89 |  |  |
| O=C1Nc2c(Cl)cc(Cl)cc2C1=O [Compound 26045] |  |  | 0.92 | −13.7 |
| CO[C@H](C(=O)[C@@H](O)[C@@H](C)O)[C@@H]1Cc2cc3cc(O[C@H]4C[C@@H](O[C@H]5C[C@@H](O)[C@H](O)[C@@H](C)O5)[C@H](O)[C@@H](C)O4)c(C)c(O)c3c(O)c2C(=O)[C@H]1O[C@H]1C[C@@H](O[C@H]2C[C@@H](O[C@H]3C[C@](C)(O)[C@H](O)[C@@H](C)O3)[C@@H](O)[C@@H](C)O2)[C@H](O)[C@@H](C)O1 [Compound 24559] |  |  | 0.91 | 36.0 |
| COC1CC(OC2CCC3(C=O)C4CCC5(C)C(C6=CC(=O)OC6)CCC5(O)C4CCC3(O)C2)OC(C)C1OC1OC(COC2OC(CO)C(O)C(O)C2O)C(O)C(O)C1O (stereo not shown) [Compound 7530] | −19.7 | 0.98 |  |  |
| Cc1ccc(N=Nc2c(O)ccc3ccccc23)cc1 [Compound 106296] | −5.2 | 1.23 |  |  |
| CS(=O)(=O)c1nc(N)nc2nc[nH]c12 [Compound 63446] |  |  | 0.76 | 4.3 |
| CCCCC(/C=N/N=C(N)N)CC.Cc1cc(O)c(C(C)C)cc1S(=O)(=O)O [Compound 66300] |  |  | 1.21 | 2.2 |
| CCOC(OC1=C(C#N)CCC1)C(C)[Se]c1ccccc1 (stereo not shown) [Compound 646189] |  |  | 0.92 | −1.0 |
| Nc1nc(SCc2ccccc2Cl)c2ncn(C3OC(CO)C(O)C3O)c2n1 (stereo not shown) [Compound 40666] | −2.9 | 1.09 |  |  |
| COC(=O)C1C(O)C(C)C(O)C(C)/C=C\C=C(C)C(=O)Nc2c(C)c(OC(C)=O)c3c(c2O)C(=O)C(C)=C2OCOC(=C23)C(C)=CC(C)(O)C(O)C(C)C1O (stereo not shown) [Compound 19990] |  |  | 0.96 | 25.1 |
| c1ccc2c(c1)nnn1c3cnccc3nc21 [Compound 128734] | −3.1 | 0.91 |  |  |
| CC1=C(N2CC2)C(=O)C(CO)=C(N2CC2)C1=O [Compound 697726] | −5.6 | 0.90 |  |  |

Next, values leading:

| Inh. (%) (Inhibition) (MBHA with a DNA substrate) | Int.* (Ratio) (Interference) [1] | Int.* (Ratio) (Interference) [2] | Inh. (%) (Inhibition) (MBHA with DNA substrate) | SMILES |
| --- | --- | --- | --- | --- |
|  |  | 0.75 | 53.1 | CCN(CC)CCNc1ccc(CO)c2sc3ccccc3c(=O)c12 [Compound 142982] |
|  |  | 0.77 | 37.7 | CCN(CC)CCNc1ccc2nc(C)n3c4ccc(OC)cc4c(=O)c1c23.Cl [Compound 637993] |
|  |  | 0.86 | 14.9 | CN(C)c1ccc(/C=C/C(=O)c2ccccc2)cc1Br [Compound 643164] |
|  |  | 1.05 | 23.0 | Nc1ccccc1C(=O)NC(=O)Nc1ccc(Oc2ncc(Br)cn2)c(Cl)c1 [Compound 639828] |
|  |  | 1.05 | 0.6 | CN(C)CCNC(=O)c1cccc2[nH]c(-c3ccncc3)nc12.Cl [Compound 678932] |
|  |  | 0.86 | −1.2 | Cc1ccc(S(=O)(=O)N2CCSCCSCCSCCSCC2)cc1 [Compound 650792] |
|  |  | 0.87 | 36.6 | CC(=O)OCc1c2ccccc2c(C)c2c1cc(F)c1ccccc12 [Compound 623135] |
| −34.2 | 0.95 |  |  | O=C1C=C(Nc2ccccc2C(=O)CC(=O)C(=O)Nc2ccc(Cl)cc2)c2ccccc2C1=O [Compound 641253] |
|  |  | 0.98 | 5.1 | N#CC1=C(N)Oc2c(ccc3cccnc23)C1c1ccccc1 (stereo not shown) [Compound 631583] |
|  |  | 1.20 | −14.2 | CCSC(=O)N1c2ccc(OC)cc2C=CC1C#N (stereo not shown) [Compound 165897] |
|  |  | 0.89 | −11.4 | N[C@@H](Cc1ccc2oc3cc(=O)c4ccccc4c-3nc2c1)C(=O)O [Compound 672425] |
|  |  | 1.17 | 2.3 | N#CC1CC(c2ccccc2)Nc2cc(Cl)ccc2N1 (stereo not shown) [Compound 155595] |
|  |  | 1.07 | −14.4 | Cc1ccc(S(=O)(=O)c2ccc([N+](=O)[O-])o2)cc1 [Compound 697923] |
|  |  | 0.89 | 56.2 | O=S(=O)(O)c1cc(N=Nc2cc(S(=O)(=O)O)c3cccnc3c2O)ccc1/C=C/c1ccc(N=Nc2cc(S(=O)(=O)O)c3cccnc3c2O)cc1S(=O)(=O)O [Compound 638352] |
|  |  | 0.87 | 20.4 | Cc1ccc(/C=C2\CNC/C(=C\c3ccc(C)cc3)C2=O)cc1.Cl [Compound 632839] |
| −32.6 | 1.08 |  |  | O=C(C=C1SCCS1)/C=C\c1ccc(Cl)cc1 [Compound 648320] |
|  |  | 0.96 | −17.5 | O=C(Nc1cccc(C(F)(F)F)c1)C(=O)C(C(=O)c1ccc(Cl)c(Cl)c1)C1OC(=O)c2ccccc21 (stereo not shown) [Compound 644794] |
|  |  | 0.99 | 19.1 | CC1(C)C(O)OC(O)C1(C)C (stereo not shown) [Compound 614928] |
|  |  | 0.96 | −12.6 | CC(=O)OCCN1c2ccccc2Sc2cnccc21 [Compound 168221] |
|  |  | 1.11 | −12.0 | CC(=O)NC(CC(C)C)C(=O)NC(Cc1ccccc1)C(=O)CCl (stereo not drawn) [Compound 173905] (Ac-Leu-Phe-CH2Cl; configuration not given here) |
|  |  | 1.02 | −13.7 | C/C(=N\NC(=S)N1CCN(C2CCCCCC2)CC1)c1ccccn1 [Compound 376265] |
| 8.1 | 0.95 |  |  | COCC(=O)OC1CCn2c1nc1c2C(=O)C(C)=C(NC(C)=O)C1=O (stereo not shown) [Compound 651084] |
|  |  | 1.08 | 22.2 | COC(=O)NC1C(C)OC(OC2C/C=C(/C)C3C=CC4C(OC5CC(OC6CC(O)C(OC7CC(O)C(OC)C(C)O7)C(C)O6)C(O)C(C)O5)C(C)CC(C)C4C3(C)/C(O)=C3\C(=O)OC4(CC(C)C(CO)=CC4/C=C\2C)C3=O)CC1(C)[N+](=O)[O-] (stereo not shown) [Compound 363182] |
